Structures are written as SMILES. In brackets after ≈: the same amount, converted by molar mass.

Holding throughout (assay): Standard agar-dilution assay, MIC
Holding throughout (assay type): cell-based

For one test, the system named is Escherichia coli EC14. The method, then:
(§1) The minimal inhibitory concentrations (MIC's) at which the tylosin derivative (formula 1 compound wherein [drawing 11] and R^3 =mycarosyloxy) inhibits certain bacteria are given in Table II. The MIC's in Table II were determined by standard agar-dilution assays.

The next test has as its system Escherichia coli N10. As to the method: as §1
A further test deals with Escherichia coli TEM. The method, then:
as §1

Test [1] has as its system Haemophilus influenzae 76. The conditions noted are these: Haemophilus influenzae 76, ampicillin-resistant strain. As to the method: as §1
Test [2] relates to Haemophilus influenzae C.L. The conditions noted are these: ampicillin-sensitive strain. The method, then: as §1
Test [3] has as its system Staphylococcus aureus S13E. As to the method:
as §1

Test [4] concerns Staphylococcus aureus V41. The conditions noted are these: Staphylococcus aureus V41, penicillin-resistant strain. The method, then: as §1
The subject of test [5] is Staphylococcus aureus X1.1. As to the method: as §1
Test [6] deals with Staphylococcus aureus X400. The method, then:
as §1

The subject of test [7] is Staphylococcus epidermidis EPI1. As to the method: as §1
Test [8] relates to Staphylococcus epidermidis EPI2. The method, then:
as §1

In test [9] the test system is Streptococcus Group D 9960. The following applies: GROUPD9960. The method, then: as §1
Test [10] relates to Streptococcus Group D X66. As to the method:
as §1

The test system of test [11] is Streptococcus pneumoniae Park I. The method, then:
as §1

The subject of test [12] is Streptococcus pyogenes C203. As to the method:
as §1

Turning to `CCC1OC(=O)CC(O)C(C)C(OC2OC(C)C(OC3CC(C)(O)C(O)C(C)O3)C(N(C)C)C2O)C2CC(O)C(C)(C2)C(=O)C=CC(C)=CC1COC1OC(C)C(O)C(OC)C1OC` (stereo not drawn) [8,20-Cyclo-Tylosin, 8,20-Cyclo-tylosin], the MIC with Escherichia coli EC14 was over 128 µg/mL; against Escherichia coli N10 it was over 128 µg/mL; in the test with Escherichia coli TEM, over 128 µg/mL; in test [1], 128 µg/mL (≈ 140 µM); in test [2], 128 µg/mL (≈ 140 µM); in [3], 2 µg/mL (≈ 2.18 µM). Also, the MIC in test [4] is 2 µg/mL (≈ 2.18 µM); in test [5], 1 µg/mL (≈ 1.09 µM); in [6] it was 2 µg/mL (≈ 2.18 µM); in test [7], 1 µg/mL (≈ 1.09 µM); in test [8] it was 0.5 µg/mL (≈ 0.546 µM); in test [9], 32 µg/mL (≈ 34.9 µM). The MIC in test [10] was found to be 32 µg/mL (≈ 34.9 µM); in test [11], 2 µg/mL (≈ 2.18 µM); in test [12], 1 µg/mL (≈ 1.09 µM).

Source of the values: patent US4581346A, “Macrolide derivatives” (Eli Lilly and Company, priority 1984, dated 1986).
